In patent US20170081338A1, “SUBSTITUTED HETEROARYL COMPOUNDS AND METHODS OF USE” (Sunshine Lake Pharma Co., Ltd., priority 2015, published 2017):

Experiments:
[1] = Compound stability in human liver microsomes; type: in vitro ADME; conditions: pH 7.4; for half-life at 5 μM: human liver microsomes 0.5 mg protein/mL, compound 5 μM, NADPH, 37° C., read-out: Human T1/2; for CLint scaled at 5 μM: human liver microsomes, in vivo CLint extrapolated
Experimental: (§1) Human or rat liver microsomes incubations were conducted in duplicate in polypropylene tubes. The typical incubation mixtures consisted of human or rat liver microsomes (0.5 mg protein/mL), compounds of interest (5 μM) and NADPH (1.0 mM) in a total volume of 200 μL potassium phosphate buffer (PBS, 100 mM, pH 7.4). Compounds were dissolved in DMSO and diluted with PBS such that the final concentration of DMSO was 0.05%. The enzymatic reactions were commenced with the addition of protein after a 3-min preincubation and incubated in a water bath open to the air at 37° C. Reactions were terminated at various time points (0, 5, 10, 15, 30, 60 min) by adding equal volume of ice-cold acetonitrile. The samples were stored at −80° C. until LC/MS/MS assays.
(§2) The concentrations of compounds in the incubation mixtures of human or rat liver microsomes were determined by a LC/MS/MS method. The ranges of the linearity in the concentration range were determined for each tested compounds.
(§3) A parallel incubation was performed using denatured microsomes as the negative control, and reactions were terminated at various time points (0, 15, 60 min) after incubation at 37° C.
(§4) Dextromethorphan (70 μM) was selected as the positive control, and reactions were terminated at various time points (0, 5, 10, 15, 30, 60 min) after incubation at 37° C. Both positive and negative control samples were included in each assay to ensure the integrity of the microsomal incubation system.
(§5) The concentrations of compounds in human or rat liver microsome incubations were plotted as a percentage of the relevant zero time point control for each reaction. The in vivo CLint were extrapolated (ref.: Naritomi, Y.; Terashita, S.; Kimura, S.; Suzuki, A.; Kagayama, A.; and Sugiyama, Y.; Prediction of human hepatic clearance from in vivo animal experiments and in vitro metabolic studies with liver microsomes from animals and humans. Drug Metab. Dispos., 2001, 29: 1316-1324).

[2] = Compound stability in rat liver microsomes; type: in vitro ADME; conditions: pH 7.4; for half-life at 5 μM: rat liver microsomes 0.5 mg protein/mL, compound 5 μM, NADPH, 37° C., read-out: Rat T1/2; for CLint scaled at 5 μM: rat liver microsomes, in vivo CLint extrapolated
Experimental: as §1, §2, §3, §4, §5

[3] = Pharmacokinetics after intravenous and oral administration in rats; type: in vivo; conditions: for Clearance (CL) after iv dosing / AUC(0-t) / half-life / Vd: dose 1 mg/kg, iv dosing; for F: oral bioavailability; for AUC(0-t) / half-life / Vd: rat, plasma; for Vd: read-out: Vss
Experimental: The LC/MS/MS system used in the analysis consists of an Agilent 1200 Series vacuum degasser, binary pump, well-plate autosampler, thermostatted column compartment, the Agilent G6430 Triple Quadrupole Mass Spectrometer with an electrosprayionization (ESI) source. Quantitative analysis was carried out using MRM mode. The parameters for MRM transitions are in the Table A.
An Agilent XDB-C18, 2.1×30 mm, 3.5 μM column was used for the analysis. 5 μL of the samples were injected. Analysis condition: The mobile phase was 0.1% formic acid in water (A) and 0.1% formic acid in methanol (B). The flow rate was 0.4 mL/min. And the gradient of Mobile phase was in the Table B.
Alternatively, an Agilent 6330 series LC/MS/MS spectrometer equipped with G1312A binary pumps, a G1367A autosampler and a G1314C UV detector were used in the analysis. An ESI source was used on the LC/MS/MS spectrometer. The analysis was done in positive ion mode as appropriate and the MRM transition for each analyte was optimized using standard solution. A Capcell MP-C18 100×4.6 mm I.D., […] column (Phenomenex, Torrance, Calif., USA) was used during the analysis. The mobile phase was 5 mM ammonia acetate, 0.1% MeOH in water (A): 5 mM ammonia acetate, 0.1% MeOH in acetonitrile (B) (70/30, v/v). The flow rate was 0.6 mL/min. Column was maintained at ambient temperature. 20 μL of the samples were injected.
The compounds disclosed herein are assessed in pharmacokinetic studies in mice, rats, dogs or monkeys. The compounds are administered as a water solution, 2% HPMC+1% TWEEN®80 in water solution, 5% DMSO+5% solutol in saline, 4% MC suspension or capsule. For the intravenous administration, the animals are generally given at 0.5, 1 or 2 mg/kg dose. For the oral (p.o.) dosing, mice and rats are generally given 0.5, 1, 5 or 10 mg/kg dose, and dogs and monkeys are generally given 10 mg/kg dose. The blood samples (0.3 mL) are drawn at 0.25, 0.5, 1.0, 2.0, 3.0, 4.0, 6.0, 8.0, 12 and 24 h time points or 0.083, 0.25, 0.5, 1.0, 2.0, 4.0, 6.0, 8.0 and 24 h time points and centrifuged at 3,000 or 4000 rpm for 2 to 10 min. The plasma solutions are collected, and stored at −20° C. or −70° C. until analyzed by LC/MS/MS as described above.

CC(CS(=O)(=O)N[C@H]1COC2C1OC[C@H]2Nc1nc(Nc2cnn(C)c2)ncc1Cl)C(F)(F)F (stereo partly drawn) [Ex. 40, N-((3S,6R)-6-((5-chloro-2-((1-methyl-1H-pyrazol-4-yl)amino)pyrimidin-4-yl)amino)hexahydrofuro[3,2-b]furan-3-yl)-3,33-trifluoro-2-methylpropane-1-sulfonamide]
half-life at 5 μM [1]: 25.2 min | CLint scaled at 5 μM [1]: 69 mL/min/kg | half-life at 5 μM [2]: 19.7 min | CLint scaled at 5 μM [2]: 126 mL/min/kg | Clearance (CL) after iv dosing [3]: 1.82 L/h/kg | F [3]: 77.3% | AUC(0-t) [3]: 533 ng·h/mL | half-life [3]: 31.2 min | Vd [3]: 1.22 L/kg

Cn1cc(Nc2ncc(Cl)c(N[C@@H]3COC4C3OC[C@@H]4NS(=O)(=O)CC(C)(C)O)n2)cn1 (stereo partly drawn) [Ex. 41, N-((3S,6R)-6-((5-chloro-2-((1-methyl-1H-pyrazol-4-yl)amino)pyrimidin-4-yl)amino)hexahydrofuro[3,2-b]furan-3-yl)-2-hydroxy-2-methylpropane-1-sulfonamide]
half-life at 5 μM [1]: 102 min | CLint scaled at 5 μM [1]: 17 mL/min/kg | half-life at 5 μM [2]: 78.7 min | CLint scaled at 5 μM [2]: 31.5 mL/min/kg | Clearance (CL) after iv dosing [3]: 3.44 L/h/kg | F [3]: 37.0% | AUC(0-t) [3]: 290 ng·h/mL | half-life [3]: 49.2 min | Vd [3]: 1.64 L/kg

CC(O)CS(=O)(=O)N[C@H]1COC2C1OC[C@H]2Nc1nc(Nc2cnn(C)c2)ncc1Cl (stereo partly drawn) [Ex. 44, N-((3S,6R)-6-((5-chloro-2-((1-methyl-1H-pyrazol-4-yl)amino)pyrimidin-4-yl)amino)hexahydrofuro[3,2-b]furan-3-yl)-2-hydroxypropane-1-sulfonamide]
half-life at 5 μM [1]: 837 min | CLint scaled at 5 μM [1]: 2.1 mL/min/kg | half-life at 5 μM [2]: 310 min | CLint scaled at 5 μM [2]: 8 mL/min/kg

O=S(=O)(CC1CC1)N[C@H]1COC2C1OC[C@H]2Nc1nc(Nc2cnn(C3CCNCC3)c2)ncc1Cl (stereo partly drawn) [Ex. 35, N-((3S,6R)-6-((5-chloro-2-((1-(piperidin-4-yl)-1H-pyrazol-4-yl)amino)pyrimidin-4-yl)amino)hexahydrofuro[3,2-b]furan-3-yl)-1-cyclopropylmethanesulfonamide]
half-life at 5 μM [1]: 51.1 min | CLint scaled at 5 μM [1]: 34 mL/min/kg | half-life at 5 μM [2]: 441 min | CLint scaled at 5 μM [2]: 5.6 mL/min/kg

Cn1cc(Nc2ncc(Cl)c(N[C@@H]3COC4C3OC[C@@H]4N3CCCC3=O)n2)cn1 (stereo partly drawn) [Ex. 22, 1-((3S,6R)-6-((5-chloro-2-((1-methyl-1H-pyrazol-4-yl)amino)pyrimidin-4-yl)amino)hexahydrofuro[3,2-b]furan-3-yl)pyrrolidin-2-one]
half-life at 5 μM [1]: 289 min | CLint scaled at 5 μM [1]: 6.01 mL/min/kg | half-life at 5 μM [2]: 104 min | CLint scaled at 5 μM [2]: 23.8 mL/min/kg | Clearance (CL) after iv dosing [3]: 0.61 L/h/kg | F [3]: 96.9% | AUC(0-t) [3]: 1630 ng·h/mL | half-life [3]: 65.4 min | Vd [3]: 1.06 L/kg

Cn1cc(Nc2ncc(Cl)c(N[C@@H]3COC4C3OC[C@@H]4NS(=O)(=O)N3CCOCC3)n2)cn1 (stereo partly drawn) [Ex. 11, N-((3S,6R)-6-((5-chloro-2-((1-methyl-1H-pyrazol-4-yl)amino)pyrimidin-4-yl)amino)hexahydrofuro[3,2-b]furan-3-yl)morpholine-4-sulfonamide]
half-life at 5 μM [1]: 44.1 min | CLint scaled at 5 μM [1]: 39.4 mL/min/kg | half-life at 5 μM [2]: 121 min | CLint scaled at 5 μM [2]: 20.6 mL/min/kg | F [3]: 40.0% | AUC(0-t) [3]: 542 ng·h/mL | half-life [3]: 335 min | Vd [3]: 23.5 L/kg

Cn1cc(Nc2ncc(Cl)c(N[C@@H]3COC4C3OC[C@@H]4NS(=O)(=O)CC(C)(F)F)n2)cn1 (stereo partly drawn) [Ex. 38, N-((3S,6R)-6-((5-chloro-2-((1-methyl-1H-pyrazol-4-yl)amino)pyrimidin-4-yl)amino)hexahydrofuro[3,2-b]furan-3-yl)-2,2-difluoropropane-1-sulfonamide]
half-life at 5 μM [1]: 65.6 min | CLint scaled at 5 μM [1]: 26.5 mL/min/kg | half-life at 5 μM [2]: 47.7 min | CLint scaled at 5 μM [2]: 52.1 mL/min/kg | Clearance (CL) after iv dosing [3]: 1.02 L/h/kg | F [3]: 106.6% | AUC(0-t) [3]: 982 ng·h/mL | half-life [3]: 32.4 min | Vd [3]: 0.69 L/kg

Cn1cc(Nc2ncc(Cl)c(N[C@@H]3COC4C3OC[C@@H]4Nc3ccc(C#N)cn3)n2)cn1 (stereo partly drawn) [Ex. 23, 6-(((3S,6R)-6-((5-chloro-2-((1-methyl-1H-pyrazol-4-yl)amino)pyrimidin-4-yl)amino)hexahydrofuro[3,2-b]furan-3-yl)amino)nicotinonitrile]
half-life at 5 μM [1]: 60 min | CLint scaled at 5 μM [1]: 29 mL/min/kg | half-life at 5 μM [2]: 26.6 min | CLint scaled at 5 μM [2]: 93.4 mL/min/kg | Clearance (CL) after iv dosing [3]: 0.42 L/h/kg | F [3]: 67.5% | AUC(0-t) [3]: 2440 ng·h/mL | half-life [3]: 27 min | Vd [3]: 0.26 L/kg

Cn1cc(Nc2ncc(Cl)c(N[C@@H]3COC4C3OC[C@@H]4N3CCCS3(=O)=O)n2)cn1 (stereo partly drawn) [Ex. 12, 2-((3S,6R)-6-((5-chloro-2-((1-methyl-1H-pyrazol-4-yl)amino)pyrimidin-4-yl)amino)hexahydrofuro[3,2-b]furan-3-yl)isothiazolidine 1,1-dioxide]
half-life at 5 μM [1]: 272 min | CLint scaled at 5 μM [1]: 6.39 mL/min/kg | half-life at 5 μM [2]: 105 min | CLint scaled at 5 μM [2]: 23.7 mL/min/kg | Clearance (CL) after iv dosing [3]: 3.59 L/h/kg | F [3]: 75.2% | AUC(0-t) [3]: 363 ng·h/mL | half-life [3]: 40.2 min | Vd [3]: 1.98 L/kg

Cn1cc(Nc2ncc(Cl)c(N[C@@H]3COC4C3OC[C@@H]4NS(=O)(=O)CC3CC(F)C3)n2)cn1 (stereo partly drawn) [Ex. 39, N-((3S,6R)-6-((5-chloro-2-((1-methyl-1H-pyrazol-4-yl)amino)pyrimidin-4-yl)amino)hexahydrofuro[3,2-b]furan-3-yl)-1-(3-fluorocyclobutyl)methanesulfonamide]
Clearance (CL) after iv dosing [3]: 2.15 L/h/kg | F [3]: 48.7% | AUC(0-t) [3]: 464 ng·h/mL | half-life [3]: 33 min | Vd [3]: 1.07 L/kg

CNC(=O)N[C@H]1COC2C1OC[C@H]2Nc1nc(Nc2cnn(C)c2)ncc1Cl (stereo partly drawn) [Ex. 1, 1-((3S,6R)-6-((5-chloro-2-((1-methyl-1H-pyrazol-4-yl)amino)pyrimidin-4-yl)amino)hexahydrofuro[3,2-b]furan-3-yl)-3-methylurea]
half-life at 5 μM [2]: 116 min | CLint scaled at 5 μM [2]: 21.4 mL/min/kg | Clearance (CL) after iv dosing [3]: 2.52 L/h/kg | F [3]: 52.4% | AUC(0-t) [3]: 398 ng·h/mL | half-life [3]: 13.8 min | Vd [3]: 0.55 L/kg

Cn1cc(Nc2ncc(Cl)c(N[C@@H]3COC4C3OC[C@@H]4N3CCOC3=O)n2)cn1 (stereo partly drawn) [Ex. 9, 3-((3S,6R)-6-((5-chloro-2-((1-methyl-1H-pyrazol-4-yl)amino)pyrimidin-4-yl)amino)hexahydrofuro[3,2-b]furan-3-yl)oxazolidin-2-one]
F [3]: 64.6% | AUC(0-t) [3]: 792 ng·h/mL | half-life [3]: 636 min | Vd [3]: 27.1 L/kg
